Experimental data reported in patent publication US12692269B2, “Therapeutic compounds” (Genentech, Inc., priority 2019, dated 2026).

Tests used:
Format in all cases: binding
[1] = target: TEAD2 YAP50-100 (Homo sapiens, UniProt Q15562); assay: TEAD2-YAP HTRF (TR-FRET) protein-protein interaction assay; settings: TEAD2, YAP peptide 50-100, HTRF; for EC50: read-out: TEAD2 YAP50-100 HTRF combined: EC50
Method in brief: (§1)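 Read-out is the TR-FRET 665 nm/615 nm ratio, which falls when compound disrupts TEAD binding to YAP (aa 50-100) or TAZ (aa 13-57) peptide. Eu anti-His-labelled His-TEAD (aa 217-447) saw compound for 30 min, then peptide/streptavidin-XL665 for 60 min, room temperature.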

[2] = target: TEAD4 YAP50-100 (Homo sapiens, UniProt Q15561); assay: TEAD4-YAP HTRF (TR-FRET) protein-protein interaction assay; settings: TEAD4, YAP peptide 50-100, HTRF; for EC50: read-out: TEAD4 YAP50-100 HTRF combined: EC50
TEAD4 YAP50-100, sequence (Q15561 217-434 limits assumed): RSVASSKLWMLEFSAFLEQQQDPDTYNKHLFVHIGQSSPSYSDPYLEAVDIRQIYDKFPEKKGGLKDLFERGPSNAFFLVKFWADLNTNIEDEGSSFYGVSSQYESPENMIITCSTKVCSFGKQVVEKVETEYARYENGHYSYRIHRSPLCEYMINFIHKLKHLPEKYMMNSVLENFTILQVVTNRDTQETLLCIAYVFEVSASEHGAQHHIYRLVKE
Method in brief: as §1

[3] = target: TEAD1 YAP50-100 (Homo sapiens, UniProt P28347); assay: TEAD1-YAP HTRF (TR-FRET) protein-protein interaction assay; settings: TEAD1, YAP peptide 50-100, HTRF; for EC50: read-out: TEAD1 YAP50-100 HTRF combined: EC50
TEAD1 YAP50-100, sequence (P28347 167-426 limits assumed): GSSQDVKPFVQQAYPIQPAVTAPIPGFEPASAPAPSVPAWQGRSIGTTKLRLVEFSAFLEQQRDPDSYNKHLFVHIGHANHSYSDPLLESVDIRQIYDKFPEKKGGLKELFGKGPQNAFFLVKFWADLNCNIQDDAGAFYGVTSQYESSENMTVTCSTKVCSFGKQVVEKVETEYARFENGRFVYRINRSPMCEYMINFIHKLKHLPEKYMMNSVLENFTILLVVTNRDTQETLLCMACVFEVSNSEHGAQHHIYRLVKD
Method in brief: as §1

[4] = target: TEAD1 TAZ (amino acids 13-57) (Homo sapiens, UniProt P28347); assay: TEAD1-TAZ HTRF (TR-FRET) protein-protein interaction assay; settings: for TEAD1 TAZ HTRF combined: Max % Inhibition: TEAD1, TAZ peptide; for EC50: TEAD1-TAZ HTRF, TR-FRET 665 nm/615 nm, read-out: TEAD1 TAZ HTRF combined: EC50
TEAD1 TAZ (amino acids 13-57), sequence (P28347 167-426 limits assumed): as above
Method in brief: as §1

[5] = target: TEAD3 YAP50-100 (Homo sapiens, UniProt Q99594); assay: TEAD3-YAP HTRF (TR-FRET) protein-protein interaction assay; settings: TEAD3, YAP peptide 50-100, HTRF; for EC50: read-out: TEAD3 YAP50-100 HTRF combined: EC50
TEAD3 YAP50-100, sequence (Q99594 173-435 limits assumed): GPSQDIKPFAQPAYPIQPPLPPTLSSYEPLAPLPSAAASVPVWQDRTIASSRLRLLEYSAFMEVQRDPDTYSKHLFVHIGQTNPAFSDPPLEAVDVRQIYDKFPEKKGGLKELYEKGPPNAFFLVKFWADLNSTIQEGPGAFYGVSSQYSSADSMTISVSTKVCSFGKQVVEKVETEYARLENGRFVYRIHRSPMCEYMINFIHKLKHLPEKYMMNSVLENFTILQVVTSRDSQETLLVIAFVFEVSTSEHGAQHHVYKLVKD
Method in brief: as §1

[6] = target: TEAD2 TAZ (amino acids 13-57) (Homo sapiens, UniProt Q15562); assay: TEAD2-TAZ HTRF (TR-FRET) protein-protein interaction assay; settings: for TEAD2 TAZ HTRF combined: Max % Inhibition: TEAD2, TAZ peptide; for EC50: TEAD2-TAZ HTRF, TR-FRET 665 nm/615 nm, read-out: TEAD2 TAZ HTRF combined: EC50
TEAD2 TAZ (amino acids 13-57), sequence (Q15562 217-447): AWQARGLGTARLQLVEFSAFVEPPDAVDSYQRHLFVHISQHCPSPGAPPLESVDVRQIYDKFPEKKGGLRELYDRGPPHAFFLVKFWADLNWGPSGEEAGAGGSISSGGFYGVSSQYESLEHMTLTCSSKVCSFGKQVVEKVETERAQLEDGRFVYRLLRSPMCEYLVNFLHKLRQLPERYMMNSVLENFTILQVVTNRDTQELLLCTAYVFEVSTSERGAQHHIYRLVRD
Method in brief: as §1

[7] = target: TEAD3 TAZ (amino acids 13-57) (Homo sapiens, UniProt Q99594); assay: TEAD3-TAZ HTRF (TR-FRET) protein-protein interaction assay; settings: for TEAD3 TAZ HTRF combined: Max % Inhibition: TEAD3, TAZ peptide; for EC50: TEAD3-TAZ HTRF, TR-FRET 665 nm/615 nm, read-out: TEAD3 TAZ HTRF combined: EC50
TEAD3 TAZ (amino acids 13-57), sequence (Q99594 173-435 limits assumed): as the sequence (Q99594 173-435 limits assumed) above
Method in brief: as §1

[8] = target: TEAD4 TAZ (amino acids 13-57) (Homo sapiens, UniProt Q15561); assay: TEAD4-TAZ HTRF (TR-FRET) protein-protein interaction assay; settings: for TEAD4 TAZ HTRF combined: Max % Inhibition: TEAD4, TAZ peptide; for EC50: TEAD4-TAZ HTRF, TR-FRET 665 nm/615 nm, read-out: TEAD4 TAZ HTRF combined: EC50
TEAD4 TAZ (amino acids 13-57), sequence (Q15561 217-434 limits assumed): as the sequence (Q15561 217-434 limits assumed) above
Method in brief: as §1

TEAD2 YAP50-100, sequence (Q15562 217-447): as the sequence (Q15562 217-447) above

## O=C(c1c(-c2cccnc2)nn2c(=O)cc(-c3ccc(C4CCCCC4)cc3)[nH]c12)N1CC(CF)C1 [Compound 37, 5-(4-Cyclohexylphenyl)-3-(3-(fluoromethyl)azetidine-1-carbonyl)-2-(pyridin-3-yl)pyrazolo[1,5-a]pyrimidin-7(4H)-one]
[1]
  TEAD2 YAP50-100 HTRF combined: Max % Inhibition: 54.5%
  EC50: 20 nM
[2]
  TEAD4 YAP50-100 HTRF combined: Max % Inhibition: 27.5%
  EC50: 220 nM
[3]
  TEAD1 YAP50-100 HTRF combined: Max % Inhibition: 66.0%
  EC50: 100 nM
[4]
  TEAD1 TAZ HTRF combined: Max % Inhibition: 50.0%
  EC50: 120 nM
[5]
  TEAD3 YAP50-100 HTRF combined: Max % Inhibition: 64.0%
  EC50: 150 nM
[6]
  TEAD2 TAZ HTRF combined: Max % Inhibition: 50.0%
  EC50: 20 nM
[7]
  TEAD3 TAZ HTRF combined: Max % Inhibition: 55.0%
  EC50: 150 nM
[8]
  TEAD4 TAZ HTRF combined: Max % Inhibition: 16.5%
  EC50: 160 nM

## O=C(c1c(-c2ccccc2)nn2c(=O)cc(-c3ccc(C4CCCCC4)cc3)[nH]c12)N1CC(CF)C1 [Compound 38, 5-(4-Cyclohexylphenyl)-3-(3-(fluoromethyl)azetidine-1-carbonyl)-2-phenylpyrazolo[1,5-a]pyrimidin-7(4H)-one]
[1]
  TEAD2 YAP50-100 HTRF combined: Max % Inhibition: 61.5%
  EC50: 30 nM
[2]
  TEAD4 YAP50-100 HTRF combined: Max % Inhibition: 41.0%
  EC50: 200 nM
[3]
  TEAD1 YAP50-100 HTRF combined: Max % Inhibition: 64.0%
  EC50: 210 nM
[4]
  TEAD1 TAZ HTRF combined: Max % Inhibition: 47.5%
  EC50: 220 nM
[5]
  TEAD3 YAP50-100 HTRF combined: Max % Inhibition: 65.0%
  EC50: 220 nM
[6]
  TEAD2 TAZ HTRF combined: Max % Inhibition: 64.0%
  EC50: 20 nM
[7]
  TEAD3 TAZ HTRF combined: Max % Inhibition: 61.0%
  EC50: 250 nM
[8]
  TEAD4 TAZ HTRF combined: Max % Inhibition: 37.5%
  EC50: 130 nM

## O=C(c1c(-c2cnco2)nn2c(=O)cc(-c3ccc(C4CCCCC4)cc3)[nH]c12)N1CC(CF)C1 [Compound 39, 5-(4-Cyclohexylphenyl)-3-(3-(fluoromethyl)azetidine-1-carbonyl)-2-(oxazol-5-yl)pyrazolo[1,5-a]pyrimidin-7(4H)-one]
[1]
  TEAD2 YAP50-100 HTRF combined: Max % Inhibition: 62.0%
  EC50: 20 nM
[2]
  TEAD4 YAP50-100 HTRF combined: Max % Inhibition: 34.5%
  EC50: 650 nM
[3]
  TEAD1 YAP50-100 HTRF combined: Max % Inhibition: 65.0%
  EC50: 50 nM
[4]
  TEAD1 TAZ HTRF combined: Max % Inhibition: 37.5%
  EC50: 90 nM
[5]
  TEAD3 YAP50-100 HTRF combined: Max % Inhibition: 61.5%
  EC50: 60 nM
[6]
  TEAD2 TAZ HTRF combined: Max % Inhibition: 56.5%
  EC50: 20 nM
[7]
  TEAD3 TAZ HTRF combined: Max % Inhibition: 53.5%
  EC50: 60 nM
[8]
  TEAD4 TAZ HTRF combined: Max % Inhibition: 18.0%
  EC50: 370 nM

## CC(C)c1ccc(COc2cc(=O)n3nc(-c4cnccn4)c(C(=O)N4CC(CF)C4)c3[nH]2)cc1 [Compound 52, 3-(3-(Fluoromethyl)azetidine-1-carbonyl)-5-((4-isopropylbenzyl)oxy)-2-(pyrazin-2-yl)pyrazolo[1,5-a]primidin-7(4H)-one]
[1]
  TEAD2 YAP50-100 HTRF combined: Max % Inhibition: 68.0%
  EC50: 20 nM
[2]
  TEAD4 YAP50-100 HTRF combined: Max % Inhibition: 66.0%
  EC50: 180 nM
[3]
  TEAD1 YAP50-100 HTRF combined: Max % Inhibition: 70.0%
  EC50: 50 nM
[4]
  TEAD1 TAZ HTRF combined: Max % Inhibition: 62.0%
  EC50: 60 nM
[5]
  TEAD3 YAP50-100 HTRF combined: Max % Inhibition: 57.0%
  EC50: 150 nM
[6]
  TEAD2 TAZ HTRF combined: Max % Inhibition: 69.0%
  EC50: 20 nM
[7]
  TEAD3 TAZ HTRF combined: Max % Inhibition: 48.0%
  EC50: 180 nM
[8]
  TEAD4 TAZ HTRF combined: Max % Inhibition: 58.0%
  EC50: 150 nM
